Values of other authors, collected in US20040034042A1, “Preservative composition” (priority 2002, published 2004).

Legend:
[1] = system: Rhizopus, Penicillium and like fungi; conditions: literature statement; effects called insufficient
[2] = system: A. parasiticus

Cn1c(=O)c2c(ncn2C)n(C)c1=O [caffeine]
antibacterial activity to Rhizopus, Penicillium and like fungi [1]: exhibits antibacterial activity
production of aflatoxin by A. parasiticus [2]: inhibits the production of aflatoxin
